# Measured values from patent US20080248008A1, “Inhibitors of Protein Kinase a Anchoring” (priority 2004, published 2008).
# Entries after “also recorded” stand apart in the source; their conditions may differ.
# Legend:
# [1] = tested on: Y1 adrenal cells; assay: Progesterone production in Y1 adrenal cells; type: cell-based, mouse; conditions: Actinomycin D treated cells
# Method: Mouse adrenocortical Y1 cells were obtained from ATCC (Cat. No. CCL-79) and maintained in DMEM/HAM'S F-12 (Cat. No. E15-813, PAA Laboratories GmbH, Pasching, Austria) supplemented with 100 μg/ml streptomycin, 100 U/ml penicillin and 10% (v/v) fetal calf serum in a humidified atmosphere of 5% CO2 and split by trypsination at less than 80% confluence.
# Progesterone production and StAR protein level. Y1 cells were cultured overnight in 6-well plates at the density of 1.5×10^6 cells per well. To increase the basal level of StAR, the cells were pre-stimulated with 10 μM forskolin for 1 hour, washed twice with medium, before peptide loading. Thereafter, the cells were loaded with 50 μM of the arginine-coupled peptide for 5 hours before being treated with 5 μg/ml Actinomyocin D (Cat. No. A-9415, Sigma) for 30 min and stimulated with 10 μM forskolin (Cat. No. 344270, Calbiochem) or 10 IU/ml ACTH (Cat. No. A-6303, Sigma) for 12 hours. […] Progesterone in the cell medium was measured by using either Spectria Progesterone RIA (Cat. No. 68521, Orion Diagnostica, Espoo, Finland) or DELFIA progesterone kit (Cat. No. A066-101, PerkinElmer) following the conditions recommended by the manufacture. The cells were lysed and the StAR protein was analysed by western blotting and the level measured by densiometric analysis.
# [2] = tested on: Csk-PS364; assay: Csk phosphoserine 364 level in forskolin-stimulated T cells; type: cell-based, human; conditions: 25 μM, 12 hours
# Method: (§1) Antibodies. RI or RII were immunoprecipitated with polyclonal antibodies against human RI or human RII at a 3 μg/ml dilution (Santa Cruz Biotechnology). MEME3 or scrambled peptide was immunoprecipitated with 1.5 μl of anti-GFP antiserum (Invitrogen). Monoclonal (Transduction laboratories) or polyclonal antibodies (Santa Cruz Biotechnology) against human RIα and RIIα were used at a 1 μg ml^−1 or 0.5 μg ml^−1 ilution for Western blotting. Polyclonal antibodies against human Cα (Santa Cruz Biotechnology) and LAT (Upstate Biotechnology) were used at a 0.4 μg ml^−1 and a 1 μg ml^−1 dilution for Western blotting, respectively. Polyclonal antibodies against LckPY505 (Cell Signaling) were used at a 1:1000 dilution and polyclonal antibody raised towards PS364 in Csk were used as previously described (Yaqub et al., Biochem. J., 372: p 271-8, 2003). Polyclonal antibodies against StAR (Affinity BioReagents) were used at 1 μg ml^−1. […]
# Peripheral blood T cells were treated with 25 μM M3-Arg11 or mock treated for 12 hours and stimulated with forskolin to activate the PKA-Csk inhibitory pathway. Subsequently, cell lysates were subjected to […], blotting onto a PVDF membranes and the Csk phosphoserine 364 levels were assessed by immunoblotting using phosphospecific antibodies to Csk-PS364 (FIG. 19, upper panel).
# [3] = tested on: mice with MAIDS; assay: T cell proliferative response after in vivo treatment of mice with murine AIDS; conditions: 75 mg/kg/day intraperitoneal, 10 days
# Method: Rad-LS infected mice with MAIDS (10-12 weeks postinfection) were treated with MEME3-Arg11 in doses corresponding to those used for other bioactive peptides in studies in mice. Parenteral administration was accomplished by injecting intraperitoneally peptide formulated in PBS. Thus, MAIDS mice were injected with vehicle (phosphate buffered saline, PBS, Ctr.) or treated with MEME3-Arg11 in PBS (M3) by intraperitoneal injection (75 mg/kg/day administered once daily) for 10 days (left panel). In parallel, healthy, uninfected mice were injected with PBS (Ctr.) or MEME3-Arg11 in PBS (M3) (right panel). Subsequently, T cell proliferative responses were assessed in vitro in a mixed population of unsorted lymph node mononuclear cells from treated and untreated animals by [^3H]-thymidine incorporation. T cell activation was accomplished in all samples by cross-ligation of anti-CD3 (mAb 2C11; 4 µg/ml). Cells were cultured for 72 h during which MEME3-Arg11 was added back. [^3H]-thymidine was included for the last 4 hours.
# [4] = tested on: Lck-PY505; assay: Lck-PY505 level in lipid rafts of forskolin-stimulated T cells; type: cell-based, human; conditions: 25 μM, 12 hours, n=3
# Method: as §1
# Peripheral blood T cells were incubated in the absence (FIG. 20, A) or presence of 25 μM MEME3-Arg11 (B) or 25 μM SM3-Arg11 (C) for 12 hours and stimulated with forskolin to activate the PKA-Csk inhibitory pathway. […] Next, fractions were analysed by 10% PAGE, blotting onto a PVDF membrane and immunoblotting using phosphospecific antibodies to Lck-PY505 (FIG. 20, panels A-C).
substance,measurement,setting,value
LEQYANQLADQIIKEATERRRRRRRRRrr [MEME3-Arg11],inhibition relative to that with mutated PKA phosphorylation site in StAR,[1],approximately 80%
same,reduction of progesterone production compared to SM3-Arg11,[1]; forskolin,60%
same,reduction of Csk-PS364 level,[2],70%
same,"T cell responses to anti-CD3 ([3H]-thymidine) compared to infected, control-treated mice",[3],significant increase (p=0.013); also recorded: increased more than three-fold
same,reduction of LckPY505 levels compared to SM3-Arg11 treated cells,[4],60%
